Measured values published in the supplement of paper PMC10307832.

Legend:
Test in all cases: relative viability (nuclei count vs DMSO), 5 days (fraction); higher = more cells survive
[1] = compound: CCn1c(-c2nonc2N)nc2c(C#CC(C)(C)O)ncc(OC[C@H]3CCCNC3)c21 + Cc1nc(NC(=O)N2CCC[C@H]2C(N)=O)sc1-c1ccnc(C(C)(C)C(F)(F)F)c1 [Alpelisib] (partner 2 µM)
How it was run: (§1)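 Relative viability was taken as the ratio of nuclei in treated wells to nuclei in vehicle wells. Lung cancer cell lines in 1536-well plates received compounds by pin tool one day after seeding, either one drug alone or a fixed anchor-drug dose plus five library-drug doses (not always all listed) in √10 steps. Nuclei were counted on 4× images after 5 days of treatment, and values are medians of duplicate plates.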

[2] = compound: CCn1c(-c2nonc2N)nc2c(C#CC(C)(C)O)ncc(OC[C@H]3CCCNC3)c21 + N=C(N)NC(=N)NCCc1ccccc1 [Phenformin] (partner 250 µM)
How it was run: as §1

[3] = compound: CCn1c(-c2nonc2N)nc2c(C#CC(C)(C)O)ncc(OC[C@H]3CCCNC3)c21 + Cc1cc(Nc2cc(N3CCN(C)CC3)nc(Sc3ccc(NC(=O)C4CC4)cc3)n2)n[nH]1 [Tozasertib] (partner 0.1 µM)
How it was run: as §1

[4] = compound: CCn1c(-c2nonc2N)nc2c(C#CC(C)(C)O)ncc(OC[C@H]3CCCNC3)c21 + CC(=O)c1c(C)c2cnc(Nc3ccc(N4CCNCC4)cn3)nc2n(C2CCCC2)c1=O [Palbociclib] (partner 0.5 µM)
How it was run: as §1

Row | Cell Line | relative viability ([1]; first compound 0.01 µM) | relative viability ([1]; first compound 0.03162 µM) | relative viability ([1]; first compound 0.1 µM) | relative viability ([1]; first compound 0.3162 µM) | relative viability ([1]; first compound 1 µM) | relative viability ([2]; first compound 0.01 µM) | relative viability ([2]; first compound 0.03162 µM) | relative viability ([2]; first compound 0.1 µM) | relative viability ([2]; first compound 0.3162 µM) | relative viability ([2]; first compound 1 µM) | relative viability ([3]; first compound 0.01 µM) | relative viability ([3]; first compound 0.03162 µM) | relative viability ([3]; first compound 0.1 µM) | relative viability ([3]; first compound 0.3162 µM) | relative viability ([3]; first compound 1 µM) | relative viability ([4]; first compound 0.01 µM) | relative viability ([4]; first compound 0.03162 µM) | relative viability ([4]; first compound 0.1 µM) | relative viability ([4]; first compound 0.3162 µM) | relative viability ([4]; first compound 1 µM)
1 | 201T | 0.989 | 0.992 | 0.99 | 0.978 | 1.02 | 0.455 | 0.438 | 0.437 | 0.435 | 0.431 | 0.954 | 0.948 | 0.914 | 0.933 | 0.963 | 0.35 | 0.378 | 0.33 | 0.352 | 0.36
2 | A549 | 0.761 | 0.654 | 0.748 | 0.482 | 0.714 | 0.197 | 0.212 | 0.164 | 0.17 | 0.154 | – | – | – | – | – | – | – | – | – | –
3 | A-427 | 0.998 | 1.11 | 1.05 | 0.997 | 1.14 | 0.315 | 0.387 | 0.263 | 0.339 | 0.326 | 0.243 | 0.227 | 0.251 | 0.24 | 0.188 | 0.426 | 0.508 | 0.533 | 0.515 | 0.559
4 | ABC-1 | 0.849 | 0.961 | 1.09 | 0.881 | 0.715 | 0.244 | 0.204 | 0.236 | 0.228 | 0.255 | 0.167 | 0.169 | 0.176 | 0.151 | 0.154 | 0.578 | – | 0.678 | 0.735 | 0.555
5 | BEN | 1.01 | 1.17 | 1.01 | 0.987 | 1.01 | 0.276 | 0.292 | 0.28 | 0.297 | 0.287 | 0.588 | 0.481 | 0.476 | 0.53 | 0.515 | 0.481 | 0.475 | 0.432 | 0.463 | 0.474
6 | CAL-12T | 1.03 | 1.33 | 1.21 | 1.24 | 0.939 | 0.506 | 0.579 | 0.588 | 0.554 | 0.469 | 0.351 | 0.354 | 0.303 | 0.309 | 0.298 | 0.39 | 0.448 | 0.468 | 0.462 | 0.553
7 | COR-L23 | 0.695 | 0.866 | 0.671 | 0.663 | 0.7 | 0.444 | 0.399 | 0.422 | 0.373 | 0.389 | 0.202 | 0.19 | 0.235 | 0.188 | 0.18 | 0.22 | 0.288 | 0.226 | 0.231 | 0.226
8 | COR-L 105 | 1.05 | 0.962 | 0.871 | 0.703 | 0.808 | 0.407 | 0.516 | 0.468 | 0.417 | 0.463 | 0.31 | 0.432 | 0.407 | 0.367 | 0.374 | 0.401 | 0.37 | 0.419 | 0.39 | 0.42
9 | Calu-6 | 0.92 | 1.08 | 1.02 | 0.963 | 1.14 | – | – | – | – | – | – | – | – | – | – | – | – | – | – | –
10 | ChaGo-K-1 | – | – | – | – | – | 0.462 | 0.508 | 0.502 | 0.438 | 0.469 | 0.216 | 0.245 | 0.228 | 0.248 | 0.248 | 0.915 | 0.918 | 0.939 | 0.893 | 0.84
11 | EBC-1 | 0.822 | 0.973 | 0.763 | 0.62 | 0.628 | – | – | – | – | – | – | – | – | – | – | – | – | – | – | –
12 | EKVX | 0.937 | 0.943 | 0.862 | 0.842 | 0.919 | 0.232 | 0.231 | 0.217 | 0.217 | 0.195 | 0.341 | 0.37 | 0.416 | 0.405 | 0.368 | 0.411 | 0.408 | 0.378 | 0.374 | 0.419
13 | EMC-BAC-2 | 0.756 | 0.73 | 0.7 | 0.759 | 0.784 | 0.487 | 0.491 | 0.578 | 0.502 | 0.52 | 0.297 | 0.287 | 0.268 | 0.255 | 0.262 | 0.497 | 0.506 | 0.504 | 0.5 | 0.471
14 | EPLC-272H | 0.962 | 1.02 | 0.989 | 0.858 | 0.956 | 0.275 | 0.333 | 0.32 | 0.291 | 0.255 | 0.337 | 0.512 | 0.261 | 0.186 | 0.274 | 0.32 | 0.371 | 0.297 | 0.281 | 0.259
15 | H3255 | 0.659 | 0.705 | 0.692 | 0.562 | 0.607 | 0.403 | 0.406 | 0.342 | 0.338 | 0.329 | 0.549 | 0.646 | 0.63 | 0.547 | 0.615 | 0.291 | 0.303 | 0.345 | 0.296 | 0.297
16 | HARA | 0.843 | 0.884 | 0.824 | 0.781 | 0.861 | 0.361 | 0.445 | 0.426 | 0.451 | 0.495 | 0.13 | 0.106 | 0.143 | 0.0993 | 0.109 | 0.303 | 0.344 | 0.269 | 0.268 | 0.209
17 | HCC-15 | 0.868 | 0.945 | 0.86 | 0.832 | 0.946 | 0.439 | 0.502 | 0.456 | 0.395 | 0.404 | 0.393 | 0.439 | 0.338 | 0.427 | 0.384 | 0.76 | 0.71 | 0.716 | 0.614 | 0.683
18 | HCC-44 | 0.732 | 0.818 | 0.794 | 0.761 | 0.786 | 0.19 | 0.183 | 0.194 | 0.184 | 0.189 | – | – | 1.08 | 0.79 | 1.08 | 0.973 | 0.939 | 0.964 | 0.813 | 1.04
19 | HCC-78 | 0.306 | 0.372 | 0.351 | 0.307 | 0.356 | 0.655 | 0.755 | 0.711 | 0.588 | 0.67 | 0.391 | 0.414 | 0.36 | 0.41 | 0.405 | 0.519 | 0.487 | 0.454 | 0.465 | 0.43
